These compounds were tested against T1, human glucocorticoid receptor (Homo sapiens, UniProt P04150) (assay: Glucocorticoid Receptor Binding Assay (I), fluorescence polarization competitor kit). Conditions: purified human recombinant full-length GR, Fluormone GS Red, 2 h room temperature.
T1 construct: purified human recombinant full-length glucocorticoid receptor (2 nM); purchased Invitrogen Part #2893
T1 sequence (P04150 1-777): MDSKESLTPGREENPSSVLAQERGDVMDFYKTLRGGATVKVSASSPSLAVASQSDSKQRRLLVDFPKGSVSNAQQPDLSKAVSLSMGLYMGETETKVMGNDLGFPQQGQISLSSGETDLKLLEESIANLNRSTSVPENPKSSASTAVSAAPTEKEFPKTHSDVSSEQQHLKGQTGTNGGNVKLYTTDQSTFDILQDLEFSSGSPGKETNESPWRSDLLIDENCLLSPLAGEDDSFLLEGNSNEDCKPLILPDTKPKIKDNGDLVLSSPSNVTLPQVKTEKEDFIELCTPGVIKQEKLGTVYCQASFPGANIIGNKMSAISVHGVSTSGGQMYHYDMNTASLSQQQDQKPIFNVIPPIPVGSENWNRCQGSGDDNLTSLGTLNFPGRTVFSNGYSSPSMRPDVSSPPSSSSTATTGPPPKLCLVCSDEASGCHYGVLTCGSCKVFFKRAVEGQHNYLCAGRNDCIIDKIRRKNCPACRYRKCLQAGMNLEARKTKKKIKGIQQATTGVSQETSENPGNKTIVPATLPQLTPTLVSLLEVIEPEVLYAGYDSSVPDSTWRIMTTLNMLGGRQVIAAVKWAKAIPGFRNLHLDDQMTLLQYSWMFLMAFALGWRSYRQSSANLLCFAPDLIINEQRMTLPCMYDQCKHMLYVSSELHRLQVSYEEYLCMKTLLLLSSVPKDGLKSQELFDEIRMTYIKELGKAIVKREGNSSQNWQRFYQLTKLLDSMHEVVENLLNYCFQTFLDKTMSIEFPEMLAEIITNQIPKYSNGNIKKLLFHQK
Protocol: Briefly, purified human recombinant full-length glucocorticoid receptor (2 nM) was mixed with fluorescently labeled glucocorticoid (1 nM Fluormone GS Red) in the presence or absence of test compound. After two hours incubation at room temperature in the dark, the fluorescence polarization (FP) of the sample was measured. […] Test compounds were analyzed in the concentration range from 8.5E-05 μM to 5 μM.

SMILES | Ki
C[C@]12Cn3cnc(-c4ccccc4)c3C=C1CCC[C@@H]2[C@@H](O)Cc1ccccc1 (racemic) [Example 20] | 18.3 nM
C[C@]12Cn3cnc(-c4ccccc4)c3C=C1CCC[C@@H]2[C@@H](O)C1CCCCC1 (racemic) [Example 21] | 20.2 nM
COc1cccc([C@H](O)[C@H]2CCCC3=Cc4c(-c5ccccc5)ncn4C[C@@]32C)c1 (racemic) [Example 22] | 94.4 nM
C[C@H](O)[C@H]1CCCC2=Cc3c(-c4ccccc4)ncn3C[C@@]21C (racemic) [Example 24] | 364 nM
C[C@]12Cn3cnc(-c4ccccc4)c3C=C1CCC[C@@H]2C(=O)c1csc2ccccc12 (racemic) [Example 34] | > 1150 nM
CC[C@@](O)(c1ccccc1)[C@H]1CCCC2=Cc3c(-c4ccccc4)ncn3C[C@@]21C (racemic) [Example 36] | 8.71 nM
CC[C@@](O)(c1csc2ccccc12)[C@H]1CCCC2=Cc3c(-c4ccccc4)ncn3C[C@@]21C (racemic) [Example 37] | 209 nM
CC12Cn3cnc(-c4ccc(F)cc4)c3C=C1CCCC2(O)CCc1ccccc1 (racemic) [Example 102] | 19.7 nM
CC12Cn3cnc(-c4ccc(F)cc4)c3C=C1CCCC2(O)c1ccc(Cl)cc1 (racemic) [Example 103] | 216 nM
C[C@]12Cn3cnc(-c4ccccc4)c3C=C1CCC[C@@H]2[C@@H](O)c1ccccc1 (single isomer, unassigned) [Example 13] | > 1150 nM
C[C@]12Cn3cnc(-c4ccccc4)c3C=C1CCC[C@@H]2[C@@H](O)c1ccccc1 (single isomer, unassigned) [Example 14] | 65 nM
C[C@]12Cn3cnc(-c4ccccc4)c3C=C1CCC[C@@H]2[C@@H](O)c1csc2ccccc12 (single isomer, unassigned) [Example 30] | 22.5 nM
C[C@]12Cn3cnc(-c4ccc(F)cc4)c3C=C1CCC[C@@H]2C(=O)c1csc2ccccc12 (single isomer, unassigned) [Example 44] | > 1150 nM
C[C@]12Cn3cnc(-c4ccc(F)cc4)c3C=C1CCC[C@@H]2[C@](C)(O)c1csc2ccccc12 (single isomer, unassigned) [Example 45] | 73.2 nM
C[C@]12Cn3cnc(-c4ccc(F)cc4)c3C=C1CCC[C@@H]2CNc1nccs1 [Example 4b, N-(((5aR,6S)-1-(4-fluorophenyl)-5a-methyl-5,5a,6,7,8,9-hexahydroimidazo[1,5-b]isoquinolin-6-yl)methyl)thiazol-2-amine] | 215 nM
C[C@]12Cn3cnc(-c4ccc(F)cc4)c3C=C1CCC[C@@H]2CC(=O)Nc1nncs1 [Example 6, 2-((5aR,6R)-1-(4-fluorophenyl)-5a-methyl-5,5a,6,7,8,9-hexahydroimidazo[1,5-b]isoquinolin-6-yl)-N-(1,3,4-thiadiazol-2-yl)acetamide] | 7.13 nM
C[C@]12Cn3cnc(-c4ccc(F)cc4)c3C=C1CCC[C@@H]2[C@](C)(O)c1ncccn1 [Example 11, (S)-1-((5aR,6S)-1-(4-Fluorophenyl)-5a-methyl-5,5a,6,7,8,9-hexahydroimidazo[1,5-b]isoquinolin-6-yl)-1-(pyrimidin-2-yl)ethanol] | 68.2 nM
CC(=O)[C@H]1CCCC2=Cc3c(-c4ccccc4)ncn3C[C@@]21C [Example 26] | > 1150 nM
C=CC[C@H](O)[C@H]1CCCC2=Cc3c(-c4ccc(F)cc4)ncn3C[C@@]21C [Example 51] | 7.38 nM
C[C@]12Cn3cnc(-c4ccc(F)cc4)c3C=C1CCC[C@@H]2[C@](C)(O)C#Cc1ccccc1 [Example 70] | 59.9 nM
C[C@]12Cn3cnc(-c4ccc(F)cc4)c3C=C1CCC[C@@H]2[C@](C)(O)c1ccc(C#N)cc1 [Example 79] | 3.42 nM
C[C@]12Cn3cnc(-c4ccc(F)cc4)c3C=C1CCC[C@@H]2[C@]1(C)OC(=N)c2ccccc21 [Example 84] | 201 nM
C[C@]12Cn3cnc(-c4ccc(F)cc4)c3C=C1CCC[C@@H]2[C@]1(C)OC(=O)c2ccccc21 [Example 85] | 177 nM
CC(C)(C)OC(=O)NCC[C@H]1CCCC2=Cc3c(-c4ccc(F)cc4)ncn3C[C@@]21C [Example 88] | 11.4 nM

More lines, now with the values ahead:

Ki | SMILES
57.5 nM | COc1cccc([C@@H](O)[C@H]2CCCC3=Cc4c(-c5ccccc5)ncn4C[C@@]32C)c1 (racemic) [Example 23]
202 nM | C[C@@H](O)[C@H]1CCCC2=Cc3c(-c4ccccc4)ncn3C[C@@]21C (racemic) [Example 25]
> 1150 nM | C[C@]12Cn3cnc(-c4ccccc4)c3C=C1CCC[C@@H]2C(=O)c1ccccc1 (racemic) [Example 33]
6.4 nM | C[C@]12Cn3cnc(-c4ccccc4)c3C=C1CCC[C@@H]2[C@](C)(O)c1ccccc1 (racemic) [Example 35]
111 nM | C[C@]12Cn3cnc(-c4ccccc4)c3C=C1CCC[C@@H]2[C@](O)(c1csc2ccccc12)C(F)(F)F (racemic) [Example 38]
493 nM | C[C@]12Cn3cnc(-c4ccccc4)c3C=C1CCC[C@@H]2[C@H](O)c1csc2ccccc12 (single isomer, unassigned) [Example 28]
> 1150 nM | C[C@]12Cn3cnc(-c4ccccc4)c3C=C1CCC[C@@H]2[C@](C)(O)c1csc2ccccc12 (single isomer, unassigned) [Example 32]
> 1150 nM | C[C@]12Cn3cnc(-c4ccc(F)cc4)c3C=C1CCC[C@@H]2C(=O)c1csc2ccccc12 (single isomer, unassigned) [Example 43]
1.43 nM | C[C@]12Cn3cnc(-c4ccc(F)cc4)c3C=C1CCC[C@@H]2[C@](C)(O)c1csc2ccccc12 (single isomer, unassigned) [Example 46]
69.8 nM | CO[C@](C)(c1cccs1)[C@H]1CCCC2=Cc3c(-c4ccc(F)cc4)ncn3C[C@@]21C [Example 2, (5aR,6S)-1-(4-Fluorophenyl)-6-((S)-1-methoxy-1-(thiophen-2-yl)ethyl)-5a-methyl-5,5a,6,7,8,9-hexahydroimidazo[1,5-b]isoquinoline]
111 nM | C[C@]12Cn3cnc(-c4ccc(F)cc4)c3C=C1CCC[C@@H]2CO [Example 4a, ((5aR,6S)-1-(4-Fluorophenyl)-5a-methyl-5,5a,6,7,8,9-hexahydroimidazo[1,5-b]isoquinolin-6-yl)methanol]
95.7 nM | CC(C)(C)NC(=O)NCC[C@H]1CCCC2=Cc3c(-c4ccc(F)cc4)ncn3C[C@@]21C [Example 7, 1-tert-Butyl-3-(2-((5aR,6R)-1-(4-fluorophenyl)-5a-methyl-5,5a,6,7,8,9-hexahydroimidazo[1,5-b]isoquinolin-6-yl)ethyl)urea]
2.12 nM | C[C@]12Cn3cnc(-c4ccc(F)cc4)c3C=C1CCC[C@@H]2[C@](C)(O)c1cccc(S(C)(=O)=O)c1 [Example 8a, (S)-1-((5aR,6S)-1-(4-fluorophenyl)-5a-methyl-5,5a,6,7,8,9-hexahydroimidazo[1,5-b]isoquinolin-6-yl)-1-(3-(methylsulfonyl)phenyl)ethanol]
878 nM | C[C@]12Cn3cnc(-c4ccc(F)cc4)c3C=C1CCC[C@@H]2C(=O)c1ccc(F)cc1 [Example 47]
35.3 nM | C[C@]12Cn3cnc(-c4ccc(F)cc4)c3C=C1CCC[C@@H]2[C@@H](O)c1ccc(F)cc1 [Example 49]
29.7 nM | C[C@]12Cn3cnc(-c4ccc(F)cc4)c3C=C1CCC[C@@H]2[C@H](O)c1ccc(F)cc1 [Example 50]
8.67 nM | C=CC[C@@H](O)[C@H]1CCCC2=Cc3c(-c4ccc(F)cc4)ncn3C[C@@]21C [Example 52]
9.67 nM | CC(C)C[C@@](C)(O)[C@H]1CCCC2=Cc3c(-c4ccc(F)cc4)ncn3C[C@@]21C [Example 59]
> 1150 nM | C[C@]12Cn3cnc(-c4ccc(F)cc4)c3C=C1CCC[C@@H]2C(=O)c1ccccc1CN1CCCC1 [Example 72]
207 nM | Cc1cccc(C)c1C(=O)[C@H]1CCCC2=Cc3c(-c4ccc(F)cc4)ncn3C[C@@]21C [Example 76]
67.1 nM | C[C@]12Cn3cnc(-c4ccc(F)cc4)c3C=C1CCC[C@@H]2CC(=O)Nc1nccs1 [Example 86]
103 nM | C[C@]12Cn3cnc(-c4ccc(F)cc4)c3C=C1CCC[C@@H]2[C@@H](O)C(F)(F)F [Example 90]
85.5 nM | C[C@]12Cn3cnc(-c4ccc(F)cc4)c3C=C1CCC[C@@H]2[C@H](O)C(F)(F)F [Example 91]
344 nM | C[C@]12Cn3cnc(-c4ccc(F)cc4)c3C=C1CCC[C@@H]2C(=O)C1CCOCC1 [Example 94]
4.45 nM | CC(C)(O)c1ccc([C@@](C)(O)[C@H]2CCCC3=Cc4c(-c5ccc(F)cc5)ncn4C[C@@]32C)cc1 [Example 98]
755 nM | C=CC1(O)CCCC2=Cc3c(-c4ccc(F)cc4)ncn3CC21C (centres unmarked) [Example 101, 1-(4-Fluorophenyl)-5a-methyl-6-vinyl-5,5a,6,7,8,9-hexahydroimidazo[1,5-b]isoquinolin-6-ol]
